These results are taken from PubChem BioAssay (NCI).

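Each compound was tested at five concentrations against cells in 96-well plates for 48 hours. The concentration for 50% growth inhibition is given as GI50. TGI is the concentration that stops growth completely.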

Holding throughout (assay): inhibition of tumour cell growth, NCI panel, 48 h
The subject of test [1] is DU-145 prostate.
For test [2], the system named is HCT-116 colon.
Test [3] relates to HOP-62 NSCLC.
Test [4] has as its system HS 578T breast.
In test [5] the test system is MDA-MB-231 breast.
For test [6], the system named is NCI/ADR-RES ovarian.
The test system of test [7] is OVCAR-4 ovarian.
Test [8] relates to SNB-19 CNS.
In test [9] the test system is SNB-75 CNS.
Test [10] concerns UACC-62 melanoma.
Test [11] deals with HCC-2998 colon.

`O[C@@H]1C=C[C@]23CCN(Cc4cc5c(cc42)OCO5)[C@@H]3C1`: the TGI in test [1], in [2], in test [3], in [4], in [5] and in test [6] was greater than 100 µM in each case. The TGI in test [7], in [8], in test [9] and in [10] was greater than 100 µM each time.

For the molecule `CC(C)(C)C1CCC2c3c([nH]c4ccccc34)C3C(=O)N(c4ccc(C#N)cc4)C(=O)C3C2C1` (stereo not given), the TGI in test [1] was determined as 35.7 µM; in test [11] it was 11.1 µM; in test [2], 18 µM; in test [3], 31.2 µM; in [4], 37 µM; in test [5] it was 35.2 µM. The TGI in [6] was 53.5 µM; in test [8] it was greater than 100 µM.

As for `CN1/C(=C/C=C/C=C/C=C2C(=O)c3ccccc3C2=O)C(C)(C)c2ccccc21`, the TGI in [1], in test [2], in [3], in test [4], in [5] and in [6] was greater than 100 µM throughout. The TGI in [7] is greater than 100 µM; in test [8] it was greater than 100 µM; in [9], greater than 100 µM; in [10], 58.3 µM.

As for `CC1C(NNC(N)=O)Oc2cc3c(cc2C1c1ccccc1O)OCO3` (stereo not given), the TGI was greater than 100 µM in [1]; greater than 100 µM in [11]; 76.8 µM in [2]; greater than 100 µM in [3]; greater than 100 µM in test [4]; greater than 100 µM in [5]. The TGI was greater than 100 µM in test [8], 86.3 µM in test [9] and greater than 100 µM in test [10].

As for `CC1CC/C(=C\c2ccc(F)cc2)C2=C1C(c1ccc(F)cc1)N1C(=O)CSC1=N2` (stereo not given), the TGI in test [1], in [2], in test [4], in [5], in test [6] and in [8] was greater than 100 µM each time. Besides, the TGI in [10] is greater than 100 µM.

With `NS(=O)(=O)c1nc(S(=O)(=O)O)c2[nH]cnc2n1`, the TGI in test [2], in test [3], in test [4], in [5], in test [6] and in test [7] was greater than 100 µM throughout. The TGI in [8], in test [9] and in test [10] was greater than 100 µM each time.

In the case of `CCc1cccc2c3c([nH]c12)-c1ccccc1NC(=O)C3`, the TGI in [1], in test [3], in test [4], in test [5], in [6] and in test [8] was greater than 100 µM each time. Also, the TGI in [9] and in [10] was greater than 100 µM in each case.

Consider `Cc1ccc(S(=O)(=O)NC(CCC(=O)NNc2ccccc2)C(=O)NNc2ccccc2)cc1` (stereo not given), for which the TGI in [2] was greater than 100 µM; in test [3], greater than 100 µM; in test [4] it was greater than 100 µM; in test [5], greater than 100 µM; in test [6], greater than 100 µM; in [7], 99.2 µM. Further, the TGI in [8], in test [9] and in [10] was greater than 100 µM throughout.

Regarding `O=c1c2cc(C(F)(F)F)ccc2sc2c(NCCCNCCO)nc3ccccc3c12`, the GI50 in test [1] is 1.74 µM; in test [11] it was 1.67 µM; in test [5], 1.28 µM; in test [8], 1.65 µM; in test [9] it was 1.48 µM; in [10] it was 1.78 µM. Besides, the TGI in test [1] came out at 3.23 µM; in test [11] it was 3.29 µM; in test [5], 2.63 µM; in [8], 3.1 µM; in test [9], 2.87 µM; in test [10] it was 3.25 µM.

Consider `O=P1(N2CCOCC2)OCCO1`, for which the TGI in test [1], in test [11], in test [2], in [4], in [6] and in test [7] was greater than 100 µM each time. The TGI in test [8] and in [10] was greater than 100 µM throughout.

As to `O=C(c1ccccc1)c1ccc2nc(-c3c(Cl)c(Cl)c(Cl)c(Cl)c3-c3nnc(-c4ccccc4)o3)[nH]c2c1`, the TGI in [1], in test [2], in [3], in test [4], in [5] and in test [6] was greater than 100 µM throughout. For the same molecule, the figures for the TGI in [7], in test [8] and in test [9] were greater than 100 µM, greater than 100 µM and 84.4 µM, respectively.

With `FC(F)(F)c1cc(N(C2c3ccccc3C=Cc3ccccc32)P(Cl)Cl)cc(C(F)(F)F)c1`, the TGI in [1] is 40.3 µM; in test [2], 40.3 µM; in test [3], 37.3 µM; in test [4], 79.5 µM; in test [5], 35 µM; in [6], 21.6 µM. In addition, the results for the TGI in test [7], in [8] and in test [9] were 42.9 µM, 56.8 µM and 61.7 µM, respectively.

For the molecule `CN(Cc1cnc2nc(N)nc(N)c2n1)c1ccc(C(=O)NC23CC4CC(CC(C4)C2)C3)cc1`, the TGI in test [1] was 38.1 µM; in test [2], greater than 100 µM; in [3], 28.2 µM; in test [4] it was 31.9 µM; in test [5] it was 39.5 µM; in [6], greater than 100 µM. For the same molecule, the TGI in test [8] was found to be 18.6 µM; in test [9], 38.9 µM; in test [10], 19.3 µM.

As to `CNc1nnc(CCCCCCCCc2nnc(NC)o2)o1`, the TGI was greater than 100 µM in test [1]; 41.9 µM in test [2]; 78 µM in [3]; greater than 100 µM in [5]; greater than 100 µM in [6]; greater than 100 µM in test [7]. For the same molecule, the TGI in test [8] and in test [9] was greater than 100 µM in each case.
